In ChEMBL document CHEMBL1201862, “PubChem BioAssay data set” (2004):
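How tested: cells in 96-well plates exposed to compound for 48 hours at five concentrations. The concentration for 50% growth inhibition is given as GI50.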 Activity calls are given as the source filed them. No stated cut-off is given here; in the data, active = GI50 up to about 1.1 µM and inactive = higher.

How the values were obtained:
Test in all cases: inhibition of tumour cell growth, NCI panel, 48 h
UO-31 = tested on: UO-31
A498 = tested on: A498
SR = tested on: SR
K562 = tested on: K562
SN12C = tested on: SN12C
U-251 = tested on: U-251
CAKI-1 = tested on: CAKI-1
NCI-H460 = tested on: NCI-H460
NCI/ADR-RES = tested on: NCI/ADR-RES
RPMI-8226 = tested on: RPMI-8226
CCRF-CEM = tested on: CCRF-CEM
OVCAR-8 = tested on: OVCAR-8
UACC-62 = tested on: UACC-62
MDA-N = tested on: MDA-N
HCC 2998 = tested on: HCC 2998
SNB-19 = tested on: SNB-19
MDA-MB-435 = tested on: MDA-MB-435
SF-268 = tested on: SF-268
NCI-H226 = tested on: NCI-H226
NCI-H23 = tested on: NCI-H23
SK-MEL-28 = tested on: SK-MEL-28
MDA-MB-231 = tested on: MDA-MB-231
BT-549 = tested on: BT-549
ACHN = tested on: ACHN
KM12 = tested on: KM12
UACC-257 = tested on: UACC-257
TK-10 = tested on: TK-10
SW-620 = tested on: SW-620
HOP-92 = tested on: HOP-92
HCT-15 = tested on: HCT-15
HL-60 = tested on: HL-60
OVCAR-4 = tested on: OVCAR-4
MOLT-4 = tested on: MOLT-4
SNB-75 = tested on: SNB-75
HT-29 = tested on: HT-29
M14 = tested on: M14
EKVX = tested on: EKVX
NCI-H522 = tested on: NCI-H522
COLO 205 = tested on: COLO 205
OVCAR-3 = tested on: OVCAR-3
HOP-62 = tested on: HOP-62
Malme-3M = tested on: Malme-3M
SK-OV-3 = tested on: SK-OV-3
SK-MEL-2 = tested on: SK-MEL-2
786-0 = tested on: 786-0
PC-3 = tested on: PC-3
RXF 393 = tested on: RXF 393
A549 = tested on: A549
HCT-116 = tested on: HCT-116
SF-539 = tested on: SF-539
DU-145 = tested on: DU-145
SF-295 = tested on: SF-295
OVCAR-5 = tested on: OVCAR-5
SK-MEL-5 = tested on: SK-MEL-5
Hs-578T = tested on: Hs-578T
MCF7 = tested on: MCF7
IGROV-1 = tested on: IGROV-1
LOX IMVI = tested on: LOX IMVI

## CC1(C)/C(=N\O)C2(C#N)CCC1C2 (stereo unspecified)
UO-31
  GI50: > 100 µM (inactive)
A498
  GI50: > 100 µM (inactive)
SR
  GI50: > 100 µM (inactive)
K562
  GI50: > 100 µM (inactive)
SN12C
  GI50: > 100 µM (inactive)
U-251
  GI50: > 100 µM (inactive)
CAKI-1
  GI50: > 100 µM (inactive)
NCI-H460
  GI50: > 100 µM (inactive)
NCI/ADR-RES
  GI50: > 100 µM (inactive)
RPMI-8226
  GI50: > 100 µM (inactive)
CCRF-CEM
  GI50: > 100 µM (inactive)
OVCAR-8
  GI50: > 100 µM (inactive)
UACC-62
  GI50: > 100 µM (inactive)
MDA-N
  GI50: > 100 µM (inactive)
HCC 2998
  GI50: > 100 µM (inactive)
SNB-19
  GI50: > 100 µM (inactive)
MDA-MB-435
  GI50: > 100 µM (inactive)
SF-268
  GI50: > 100 µM (inactive)
NCI-H226
  GI50: > 100 µM (inactive)
NCI-H23
  GI50: > 100 µM (inactive)
SK-MEL-28
  GI50: > 100 µM (inactive)
MDA-MB-231
  GI50: > 100 µM (inactive)
BT-549
  GI50: > 100 µM (inactive)
ACHN
  GI50: > 100 µM (inactive)
KM12
  GI50: > 100 µM (inactive)
UACC-257
  GI50: > 100 µM (inactive)
TK-10
  GI50: > 100 µM (inactive)
SW-620
  GI50: > 100 µM (inactive)
HOP-92
  GI50: > 100 µM (inactive)
HCT-15
  GI50: > 100 µM
HL-60
  GI50: > 100 µM (inactive)
OVCAR-4
  GI50: > 100 µM (inactive)
MOLT-4
  GI50: > 100 µM (inactive)
SNB-75
  GI50: > 100 µM (inactive)

## CC(=O)Nc1ccc(S(=O)(=O)/N=c2/sc(S(N)(=O)=O)nn2C)cc1
HT-29
  GI50: > 100 µM (inactive)
M14
  GI50: > 100 µM (inactive)
UO-31
  GI50: > 100 µM (inactive)
A498
  GI50: > 100 µM (inactive)
EKVX
  GI50: > 100 µM (inactive)
NCI-H522
  GI50: > 100 µM (inactive)
SR
  GI50: > 100 µM (inactive)
COLO 205
  GI50: > 100 µM (inactive)
U-251
  GI50: > 100 µM (inactive)
CAKI-1
  GI50: > 100 µM (inactive)
NCI-H460
  GI50: > 100 µM (inactive)
OVCAR-3
  GI50: > 100 µM (inactive)
HOP-62
  GI50: > 100 µM (inactive)
NCI/ADR-RES
  GI50: > 100 µM (inactive)
RPMI-8226
  GI50: > 100 µM (inactive)
OVCAR-8
  GI50: > 100 µM (inactive)
UACC-62
  GI50: > 100 µM (inactive)
Malme-3M
  GI50: > 100 µM (inactive)
SK-OV-3
  GI50: > 100 µM (inactive)
SK-MEL-2
  GI50: > 100 µM (inactive)
HCC 2998
  GI50: > 100 µM (inactive)
SNB-19
  GI50: > 100 µM (inactive)
MDA-MB-435
  GI50: > 100 µM (inactive)
SF-268
  GI50: > 100 µM (inactive)
NCI-H226
  GI50: > 100 µM (inactive)
NCI-H23
  GI50: > 100 µM (inactive)
SK-MEL-28
  GI50: > 100 µM (inactive)
786-0
  GI50: > 100 µM (inactive)
MDA-MB-231
  GI50: > 100 µM (inactive)
BT-549
  GI50: > 100 µM (inactive)
PC-3
  GI50: > 100 µM (inactive)
ACHN
  GI50: > 100 µM (inactive)
KM12
  GI50: > 100 µM (inactive)
RXF 393
  GI50: > 100 µM (inactive)
TK-10
  GI50: > 100 µM (inactive)
SW-620
  GI50: > 100 µM (inactive)
A549
  GI50: > 100 µM (inactive)
HCT-116
  GI50: > 100 µM (inactive)
SF-539
  GI50: > 100 µM (inactive)
HOP-92
  GI50: > 100 µM (inactive)
DU-145
  GI50: > 100 µM (inactive)
HCT-15
  GI50: > 100 µM
HL-60
  GI50: > 100 µM (inactive)
OVCAR-4
  GI50: > 100 µM (inactive)
MOLT-4
  GI50: > 100 µM (inactive)
SF-295
  GI50: > 100 µM (inactive)
SNB-75
  GI50: > 100 µM (inactive)
OVCAR-5
  GI50: > 100 µM (inactive)

## CSc1nc(Cl)c2c(n1)Sc1nc3cc4c(cc3n1C2O)OCO4 (stereo unspecified)
HT-29
  GI50: 0.254 µM (active)
M14
  GI50: 0.333 µM (active)
UO-31
  GI50: 0.46 µM (active)
A498
  GI50: 3.44 µM (inactive)
EKVX
  GI50: 5.75 µM (inactive)
NCI-H522
  GI50: 0.26 µM (active)
SK-MEL-5
  GI50: 0.526 µM (active)
K562
  GI50: 0.29 µM (active)
SN12C
  GI50: 0.578 µM (active)
COLO 205
  GI50: 0.247 µM (active)
U-251
  GI50: 0.791 µM (active)
CAKI-1
  GI50: 2.95 µM (inactive)
NCI-H460
  GI50: 0.364 µM (active)
Hs-578T
  GI50: 1.05 µM (active)
OVCAR-3
  GI50: 0.982 µM (active)
HOP-62
  GI50: 0.701 µM (active)
NCI/ADR-RES
  GI50: 0.385 µM (active)
MCF7
  GI50: 0.338 µM (active)
RPMI-8226
  GI50: 0.385 µM (active)
CCRF-CEM
  GI50: 0.269 µM (active)
OVCAR-8
  GI50: 0.575 µM (active)
UACC-62
  GI50: 0.43 µM (active)
Malme-3M
  GI50: 0.516 µM (active)
MDA-N
  GI50: 0.237 µM (active)
SK-OV-3
  GI50: 1.72 µM (inactive)
SK-MEL-2
  GI50: 0.726 µM (active)
IGROV-1
  GI50: 0.392 µM (active)
HCC 2998
  GI50: 1.66 µM (inactive)
SNB-19
  GI50: 1.57 µM (inactive)
LOX IMVI
  GI50: 0.206 µM (active)
MDA-MB-435
  GI50: 0.232 µM (active)
SF-268
  GI50: 0.637 µM (active)
NCI-H226
  GI50: 1.1 µM (active)
NCI-H23
  GI50: 0.891 µM (active)
SK-MEL-28
  GI50: 0.895 µM (active)
786-0
  GI50: 0.321 µM (active)
MDA-MB-231
  GI50: 0.391 µM (active)
BT-549
  GI50: 0.452 µM (active)
PC-3
  GI50: 0.306 µM (active)
ACHN
  GI50: 0.946 µM (active)
KM12
  GI50: 0.194 µM (active)
UACC-257
  GI50: > 58.7 µM (inactive)
RXF 393
  GI50: 1.96 µM (inactive)
TK-10
  GI50: 1.65 µM (inactive)
SW-620
  GI50: 0.33 µM (active)
A549
  GI50: 0.617 µM (active)
HCT-116
  GI50: 0.0863 µM (active)
SF-539
  GI50: 0.126 µM (active)
DU-145
  GI50: 0.318 µM (active)
HCT-15
  GI50: 0.31 µM
OVCAR-4
  GI50: > 100 µM (inactive)
SF-295
  GI50: 0.818 µM (active)
SNB-75
  GI50: 3.75 µM (inactive)
OVCAR-5
  GI50: 0.92 µM (active)
